For data set [1], the system named is ear vasculature. Description: Murine ear vein model: vascular permeability (FITC-dextran, intravital microscopy, Patlak analysis). The note with it: TPOm following radiation; days 3 and 7 post-irradiation. The class given is in vivo, Flk1-mCherry mice. The text has this: (§1) Immediately prior to injection, aliquots were thawed and diluted.
(§2) Mice were anesthetized via isoflurane (2%, mixed with oxygen) and the ear was chemically depilated (Nair™) and cleaned with 70% ethanol. The mouse was placed on a heated stage underneath a Zeiss Observer.Z1 (Carl Zeiss AG, Oberkochen, Germany) inverted microscope. The irradiated ear was affixed to a plexi-glass slide using double-sided tape. Images were acquired using Zen Imaging software (Carl Zeiss AG, Oberkochen, Germany). The vascular endothelial cells in Flk1-mCherry mice express mCherry, which was visualized using a Zeiss Texas Red filter (Ex. 560/40; Em. 630/75). Acridine orange and FITC-dextran were visualized using a Zeiss eGFP/FITC/Alexa488 filter (Ex. 470/40; Em. 525/50).
After orienting the mouse on the microscope, a 30G needle attached to a syringe with Tygon Microbore tubing catheter (Harvard Apparatus) was inserted into the tail vain. Z-stack images of both the FITC and mCherry channels were acquired every 10 seconds, and 0.5 mg of FITC-conjugated 70 kDa dextran injected through the catheter after the third set image of images was collected. […]
Model (0.1) postulates that the change in tissue concentration at time t is proportional to CB(t-Δ), concentration of dextran in the vasculature at a delay Δ. […] In this setting, the quantity of interest is k1, the permeability rate. […]

The nature of data set [2]: Rat weight gain after 20 Gy targeted prostate RT. The class given is in vivo, Sprague Dawley rats. The protocol: (§3) Thirty-five eight-week-old male Sprague Dawley rats were obtained from Charles River Laboratories (Malvern, Pa.) and pair-housed under standard housing conditions. Animals were divided into 4 groups: Saline/Sham, Saline RT, TPOm/Sham, TPOm/RT.
(§4) TPOm was administered as a single dose via sub-cutaneous injection (3,000 μg/kg) 10 minutes after RT.
Stereotactic image-guided prostate single fraction RT was performed as published previously (Kimura et al., J. Sex Med. 9(6):1535-49 (2012)). In brief, rats were anesthetized and immobilized on a polystyrene block. A CT scan was performed to image the entire pelvis using a GE Discovery RT590 (GE Healthcare, Little Chalfont, UK). Individualized treatment plans were prepared for each rat using the Eclipse treatment planning system (Varian Medical Systems, Palo Alto, CA). The prostate and rectum were contoured, with the primary treatment volume generated by expansion of the prostate by 1 mm followed by subtraction of the rectum expanded by 1 mm. A single, dynamic conformal arc plan using a beam energy of 6 MV was normalized to deliver 20 Gy to 95% of the primary treatment volume in a single fraction with partial sparing of the rectum. […]
(§5) Statistical analysis was completed using Prism 6 (GraphPad, LaJolla, CA). […] Rat weight was assessed using a two-way repeated measures ANOVA.

The conditions of data set [3]: mouse, in vivo.
Description: Male and female mice of at least 8 weeks of age were transferred to a non-barrier facility and group housed throughout the experiments.
Mice were anesthetized with 80/8 mg/kg ketamine/xylazine i.p. injection. Mice were placed in cylindrical lead jigs that shielded the entire body with the exception of the left ear pinna and were irradiated using an Orthovoltage X-ray 320 irradiator (Precision X-ray Inc.; North Branford, CT) at a dose rate of 203 cGy/minute (320 kVp/10 mA with a 2 mm Al filter).
TPOm was reconstituted in sterile saline, sterile filtered, aliquoted, and stored at −20° C. until use. Immediately prior to injection, aliquots were thawed and diluted. Mice received 300 μg/kg of TPOm, sub-cutaneously, six hours after radiation.
Mice were euthanized with 50 μL Euthasol (Virbac, Fort Worth, TX) injected intraperitoneally. After mice became non-responsive to toe pinch, but prior to heartbeat cessation, 500 μL of blood was collected by cardiac puncture via heparinized syringe, and immediately vortexed with 20 μL heparin. CBC analysis was conducted using an IDEXX ProCyte Dx Hematology analyzer by the Duke University Veterinary Diagnostic Laboratory.
Data set [4] relates to internal pudendal artery. As to the kind of experiment: Ultrasonographic measurement of hydralazine-induced vasodilation after prostate RT. The class given is in vivo, Sprague Dawley rats. The protocol:
as §3, §4
(§6) Stereotactic image-guided prostate single fraction RT was performed as published previously (Kimura et al., J. Sex Med. 9(6):1535-49 (2012)). In brief, rats were anesthetized and immobilized on a polystyrene block. A CT scan was performed to image the entire pelvis using a GE Discovery RT590 (GE Healthcare, Little Chalfont, UK). Individualized treatment plans were prepared for each rat using the Eclipse treatment planning system (Varian Medical Systems, Palo Alto, CA). The prostate and rectum were contoured, with the primary treatment volume generated by expansion of the prostate by 1 mm followed by subtraction of the rectum expanded by 1 mm. A single, dynamic conformal arc plan using a beam energy of 6 MV was normalized to deliver 20 Gy to 95% of the primary treatment volume in a single fraction with partial sparing of the rectum. The majority of the bladder, the penis and the testes were excluded from the field. The rat was then treated on a NovalisTx radiosurgery linac (Brainlab AG, Munich, DE and Varian Medical Systems) using cone beam computed tomography prior to treatment with bony image guidance within the same anesthesia window as planning. Sham irradiated rats were anesthetized and immobilized on a polystyrene block without irradiation.
Following ICP measurements, acoustic gel was applied to the prostate area and a mouse high frequency echo transducer (MS5505) was applied to the internal pudendal artery. […] Reproducible US placement was verified by using the same US-measured distance to the pubic bone in all animals. […] Arterial diameter was measured using the vascular package for Vevo 2100 software.
as §5

Data set [5] has as its system erectile function. As to the kind of experiment: Intracavernous pressure (ICP) measurements, radiation-induced erectile dysfunction. The class given is in vivo, Sprague Dawley rats. The protocol:
as §3, §4, §6
For intracavernous pressure (ICP) measurements, a previously published protocol was followed (Kimura et al., J. Sex Med. 8(8):2215-26 (2011)). […] MAP and ICP were recorded using LabChart 7 software (ADInstruments, Colorado Spring, CO), and expressed as a ratio to minimize inter-rat differences in baseline pressure and effects of anesthesia.
as §5

In data set [6] the test system is ear vasculature. As to the kind of experiment: Murine ear vein model: leukocyte-endothelial cell (L/E) interactions (acridine orange intravital microscopy). The class given is in vivo, Flk1-mCherry mice.
Description: as §1, §2
After orienting the mouse on the microscope, 0.5 mg of acridine orange (Sigma, St. Louis, MO; dissolved in sterile saline) was injected intravenously. […] Four venules per mouse were identified, based on their diameter, and the number of leukocytes that rolled past three pre-selected points in each venule were counted. The vessel diameter (D) and free-flowing leukocyte velocities (V) were also measured, and used to calculate shear rate, defined as (8×V)/D. All videos were analyzed by researchers blinded to the treatment groups. […]
B), and slopes were calculated for each individual mouse using GraphPad Prism. […]

For data set [7] the following is noted: 3,000 μg/kg; administered at multiple time points; whole body radiation; cited from earlier work.
The test system of data set [8] is penile artery. As to the kind of experiment: CD31 staining and quantification of penile arteries after prostate RT. The class given is in vivo, Sprague Dawley rats. As for the experimental part: as §3, §4
Stereotactic image-guided prostate single fraction RT was performed as published previously (Kimura et al., J. Sex Med. 9(6):1535-49 (2012)). In brief, rats were anesthetized and immobilized on a polystyrene block. A CT scan was performed to image the entire pelvis using a GE Discovery RT590 (GE Healthcare, Little Chalfont, UK). Individualized treatment plans were prepared for each rat using the Eclipse treatment planning system (Varian Medical Systems, Palo Alto, CA). […]
Penises were snap-frozen in liquid nitrogen and stored at −80° C. until use. […] CD31 expression was then quantified by highlighting only the CD31 stained portion surrounding each vessel, and obtaining a pixel count of the stained region, using a uniform threshold across all images. […]
as §5

On to “methoxypolyethyleneglycol20000-propionyl-L-Isoleucyl-L-Glutamyl-Glycyl-L-Prolyl-L-Threonyl-L-Leucyl-L-Arginyl-L-Glutaminyl-L-2-Naphthylalanyl-L-Leucyl-L-Alanyl-L-Alanyl-L-Arginyl-Sarcosyl-Ne-(methoxypolyethyleneglycol20000-propionyl-L-Isoleucyl-L-Glutamyl-Glycyl-L-Prolyl-L-Threonyl-L-Leucyl-L-Arginyl-L-Glutaminyl-L-2-Naphthylalanyl-L-Leucyl-L-Alanyl-L-Alanyl-L-Arginyl-Sarcosyl-)-Lysinamide [TPOm]”, for which the “permeability rates versus non-irradiated controls” value in data set [1] is “not significantly different from non-irradiated controls”. Also, the “mean rate of body weight gain” value in data set [2] (TPOm/RT, 20 Gy prostate RT, 3,000 μg/kg s.c. 10 minutes after RT) was 28.6±3.9 g/week; in data set [2] (TPOm/sham (no RT), 3,000 μg/kg s.c. single dose) it was 37.7±3.3 g/week. In data set [3], the “effect on total leukocytes, neutrophils or lymphocytes” value is listed as “no significant differences”. The “change in pudendal artery diameter in response to hydralazine” value in data set [4] (TPOm following 20 Gy prostate RT, 0.4 mg/kg hydralazine, 9 weeks post-RT) was 24.1%±7.2%. In data set [4] (nine weeks post-RT, diameter before and after hydralazine (FIG. 2)), the “protection from impaired pudendal artery vasodilation following prostate RT” value is “protected rats from impaired pudendal artery vasodilation”. In addition, the “increase in pudendal artery diameter following hydralazine infusion” value in data set [4] (non-irradiated rats, TPOm alone, 0.4 mg/kg hydralazine, 9 weeks) is given as 10.4%±10%. In addition, in data set [5] (TPOm alone, no RT), the “mean ICP:MAP versus unirradiated rats treated with saline” value was “not significantly different”. For the same substance, in data set [5] (TPOm following 20 Gy prostate RT, 9 weeks), the “ED penetrance (ICP:MAP ratio not greater than 0.6)” value is on record as 67%. Further, the “prevention of prostate RT (20 Gy) induced erectile dysfunction” value in data set [5] (single dose of TPOm 10 minutes post RT, ICP tested 9 weeks after RT (FIG. 4)) is recorded as “not prevented”. For the same substance, the “average slope of shear rate vs. L/E interactions” value in data set [6] (6 Gy to the ear, 300 μg/kg TPOm s.c. six hours later, 24 hours post-irradiation) was −8.7±6.4. Also, the “L/E interaction at higher shear rates after RT” value in data set [6] (FIG. 9C) was “prevented L/E interaction at higher shear rates”. For the same substance, the “survival compared to placebo” value in data set [7] is “substantial survival benefit”. Also, the “RT-induced decrease in penile artery cross-sectional area” value in data set [8] (TPOm/RT rats, nine weeks post-RT (FIG. 3B)) is “not seen”. Besides, the “CD31 density (CD31+ pixels/μm artery perimeter)” value in data set [8] (pair-wise comparison between treatment groups (FIG. 3C)) is “no pair-wise differences”.
